Assay results: EP0828750B1, “PALLADIUM CATALYZED NUCLEOSIDE MODIFICATION METHODS USING NUCLEOPHILES AND CARBON MONOXIDE” (EC Technology LLC, priority 1995, dated 1996)

How the values were obtained:
[1] = system: human foreskin fibroblasts (HFF); experiment: Cytotoxicity assay (IC50 determination), crystal violet staining; assay type: cell-based; conditions: Fibroblast, 336 h, concentration required to inhibit cellular proliferation by 50%, 96-well, 14 day incubation, crystal violet absorbance 620nm
Procedure: (§1) Newborn human foreskins were obtained immediately post-circumcision and placed in minimal essential medium (MEM) supplemented with vancomycin, fungizone, penicillin and gentamycin (all present at standard concentrations) and maintained for four hours under tissue culture conditions (37°C, 5% CO2). Supplemented MEM was then removed and the foreskin material macerated. Tissue fragments were then washed exhaustively (using supplemented MEM) to remove residual erythrocyte contamination.
The erythrocyte-free cell fragments were then exposed to trypsin solution (0.25%) for 15 min with continuous stirring. […]
HFF were seeded into 96-well tissue culture plates at a concentration of 2.5x10^4 cells/ml (100µl MEM with 10% FBS was used as the culture medium) and maintained under tissue culture conditions for 24H prior to experimentation. […] To the first row of each 96-well plate, 125 µl of control media or experimental drug CT1146-26 or CT1146-28 (initial concentration determined by the overall concentration range desired) was added in triplicate wells. […]
Following the incubation period, medium was removed from all wells and the cells stained with 0.1% crystal violet solution for 30 min followed by several wash cycles to remove residual stain. The crystal violet stained plates were then allowed to air dry for 24H prior to reading well absorbance values (620nm) using a Skatron plate reader. […]

[2] = system: human cytomegalovirus (CMV); experiment: Plaque reduction assay using semi-solid overlay (EC50 determination); assay type: cell-based; conditions: for EC50: Human betaherpesvirus 5, 336 h, concentration required to inhibit viral cytopathogenicity by 50%, CMV plaques in HFF, agarose overlay, 14 days, drug range 100 to 0.03 µg/ml; for SI: Selectivity Index, SI = IC50/EC50
Procedure: as §1
The erythrocyte-free cell fragments were then exposed to trypsin solution (0.25%) for 15 min with continuous stirring. Tissue fragments were then allowed to settle out of suspension and the supernatant collected and passed through sterile cheesecloth into a flask containing MEM and 10% fetal bovine serum (FBS). The cheesecloth was washed with an additional volume of MEM containing 10% FBS (The flask containing MEM and 10% FBS was maintained on ice throughout the trypsinization procedure). The trypsinization procedure was repeated using fresh trypsin solution, until no additional cell removal from tissue fragments was observed. Cells removed by this process are predominantly human foreskin fibroblasts (HFF).
Cells contained in MEM with 10% FBS were pelleted by centrifugation (≅ 1000 RPM, 4°C, 10 min), the supernatant discarded and the pelleted cells suspended in a minimal volume of MEM with 10% FBS. HFF isolates were then plated into T-25 tissue culture flasks (the number of primary culture flasks used was based on the volume of the recovered cell pellet). HFF isolates were then maintained under tissue culture conditions (37°C, 5% CO2) until confluent. Primary cultures of HFF were sequentially expanded into larger format culture flasks using standard tissue culture procedures. HFF were maintained in the presence of vancomycin and fungizone through passage four.
HFF are plated into 6-well tissue culture plates and maintained under tissue culture conditions for approximately two days prior to use. On the date of assay, experimental drug solutions are prepared as 2X concentrations in 2X MEM. Serial dilutions of experimental drug are then performed (1:5) using 2X MEM. The approximate concentration range for experimental agents being 200 to 0.06 µg/ml. Each drug or control solution was then diluted 1:1 with 0.8% agarose solution. Following dilution with agarose solution, the final experimental drug concentration range was 100 to 0.03 µg/ml, with a final agarose overlay concentration of 0.4%. Viral material (CMV) was diluted in MEM with 10% FBS to yield a concentration of virus producing 20-30 plaques per well. […]
Following incubations, HFF were stained for 4-6H with a 1.5% solution of neutral red. The neutral red/agarose/MEM mixture is aspirated and viral plaques counted using a 10X steriomicroscope. […]

SMILES	IC50 [1]	EC50 [2]	SI [2]
CCCCNC(=O)c1cn(C2OC(COP(=O)(O)O)C(O)C2O)c(=O)nc1N (stereo not drawn) [CT1146-28]	> 100 µg/mL	< 0.03 µg/mL	> 3333
CC(C)NC(=O)c1cn(C2OC(COP(=O)(O)O)C(O)C2O)c(=O)nc1N (stereo not drawn) [CT1146-26]	> 100 µg/mL	< 0.03 µg/mL	> 3333
